The structures appear in SMILES notation.

This assay concerns ovariectomized mice administered with 17β-estradiol. The assay can be described thus: Anti-estrogenic activity (oral administration): inhibition of estradiol-induced increase in uterine weight in ovariectomized mice. Particulars: 10 mg/kg p.o., once a day for 3 days, ovariectomized ICR mice given 17β-estradiol-benzoate 0.1 μg/mouse s.c. for 3 days; for inhibition in vivo at 10 mg/kg: po, 24 h. It counts as in vivo. How it is done: Test compounds were assayed for their oral anti-estrogenic activity in the following manner. In this experiment, the compounds prepared in Examples 5, 12, 14-33, 37 and 38 were used as test compounds. As control compounds, those having the same structures in the parent scaffold as the test compounds were used, that is, ZM189154 for Examples 5 and 27-33 and ICI182780 for Examples 12, 14-26, 37 and 38.
In this experiment, each of the test and control compounds was suspended in 5% arabic gum solution and orally administered for 3 days on a once-a-day basis. After 24 hours from the last administration, the test animals were sacrificed and the uteri were removed and weighed.

By inhibition in vivo is commonly meant the relative decrease from the control value, in per cent. On to `C[C@]12C[C@H](CCCCCCCCC(CCCC(F)(F)C(F)(F)C(F)(F)C(F)(F)F)C(=O)O)[C@@H]3c4ccc(O)cc4CC[C@H]3[C@@H]1CC[C@@H]2O` (stereo partly drawn) [Example 22, 10-(3,17β-dihydroxyestra-1,3,5(10)-trien-11β-yl)-2-(4,4,5,5,6,6,7,7,7-nonafluoroheptyl)decanoic Acid], for which the inhibition in vivo at 10 mg/kg was 98%.

In the case of `C[C@]12C[C@H](CCCCCCCCC(CCCC(F)(F)C(F)(F)F)C(=O)O)[C@@H]3c4ccc(O)cc4CC[C@H]3[C@@H]1CC[C@@H]2O` (stereo partly drawn) [Example 21, 10-(3,17β-dihydroxyestra-1,3,5(10)-trien-11β-yl)-2-(4,4,5,5,5-pentafluoropentyl)decanoic Acid], the inhibition in vivo at 10 mg/kg stood at 99%.

Regarding `C[C@]12CC[C@@H]3c4ccc(O)cc4C[C@@H](CCCCCCCCC(CCCC(F)(F)C(F)(F)C(F)(F)C(F)(F)F)C(=O)O)[C@H]3[C@@H]1CC[C@@H]2O` (stereo partly drawn) [Example 15, 10-[3,17β-dihydroxyestra-1,3,5(10)-trien-7α-yl]-2-(4,4,5,5,6,6,7,7,7-nonafluoroheptyl)decanoic Acid], the inhibition in vivo at 10 mg/kg was found to be 96%.

On to `C[C@]12C[C@H](CCCCCCCCCC(CCCC(F)(F)C(F)(F)C(F)(F)C(F)(F)F)C(=O)O)[C@@H]3c4ccc(O)cc4CC[C@H]3[C@@H]1CC[C@@H]2O` (stereo partly drawn) [Example 25, 11-(3,17β-dihydroxyestra-1,3,5(10)-trien-11β-yl)-2-(4,4,5,5,6,6,7,7,7-nonafluoroheptyl)undecanoic Acid], for which the inhibition in vivo at 10 mg/kg amounted to 93%.

With `O=C(O)C(CCCCCCCCCCc1c(-c2ccc(O)cc2F)ccc2cc(O)ccc12)CCCC(F)(F)C(F)(F)F` (centres unmarked) [Example 31, 12-[2-(2-fluoro-4-hydroxyphenyl)-6-hydroxynaphth-1-yl]-2-(4,4,5,5,5-pentafluoropentyl)dodecanoic Acid], the inhibition in vivo at 10 mg/kg came out at 75%.

Turning to `C[C@]12CC[C@@H]3c4ccc(O)cc4C[C@@H](CCCCCCCC[C@@H](CCCC(F)(F)C(F)(F)C(F)(F)C(F)(F)F)C(=O)O)[C@H]3[C@@H]1CC[C@@H]2O` [Example 38, (2S)-10-(3,17β-dihydroxyestra-1,3,5(10)-trien-7α-yl)-2-(4,4,5,5,6,6,7,7,7-nonafluoroheptyl)decanoic Acid], the inhibition in vivo at 10 mg/kg came to 100%.

On to `CCc1cc(O)ccc1-c1ccc2cc(O)ccc2c1CCCCCCCCCCC(CCCC(F)(F)C(F)(F)F)C(=O)O` (centres unmarked) [Example 30, 12-[2-(2-ethyl-4-hydroxyphenyl)-6-hydroxynaphth-1-yl]-2-(4,4,5,5,5-pentafluoropentyl)dodecanoic Acid], for which the inhibition in vivo at 10 mg/kg was found to be 58%.

Consider `C[C@]12CC[C@@H]3c4ccc(O)cc4C[C@@H](CCCCCCCCC[S+]([O-])CCCC(F)(F)C(F)(F)F)[C@H]3[C@@H]1CC[C@@H]2O` (some centres unmarked) [ICI182780, reference compound], for which the inhibition in vivo at 10 mg/kg came to 51%.

For `C[C@]12CC[C@@H]3c4ccc(O)cc4C[C@@H](CCCCCCCC[C@H](CCCC(F)(F)C(F)(F)C(F)(F)C(F)(F)F)C(=O)O)[C@H]3[C@@H]1CC[C@@H]2O` [Example 37, (2R)-10-(3,17β-dihydroxyestra-1,3,5(10)-trien-7α-yl)-2-(4,4,5,5,6,6,7,7,7-nonafluoroheptyl)decanoic Acid], the inhibition in vivo at 10 mg/kg was 101%.

As to `Cc1cc(O)ccc1-c1ccc2cc(O)ccc2c1CCCCCCCCCCC(CCCC(F)(F)C(F)(F)F)C(=O)O` (centres unmarked) [Example 29, 12-[6-hydroxy-2-(4-hydroxy-2-methylphenyl)-naphth-1-yl]-2-(4,4,5,5,5-pentafluoropentyl)dodecanoic Acid], the inhibition in vivo at 10 mg/kg amounted to 80%.

For `C[C@]12CC[C@@H]3c4ccc(O)cc4C[C@@H](CCCCCCCCC(CCCC(F)(F)C(F)(F)F)C(=O)O)[C@H]3[C@@H]1CC[C@@H]2O` (stereo partly drawn) [Example 14, 10-[3,17β-dihydroxyestra-1,3,5(10)-trien-7α-yl]-2-(4,4,5,5,5-pentafluoropentyl)decanoic Acid], the inhibition in vivo at 10 mg/kg came to 87%.

Take `C[C@]12C[C@H](CCCCCCCCC(CCC(F)(F)C(F)(F)C(F)(F)C(F)(F)F)C(=O)O)[C@@H]3c4ccc(O)cc4CC[C@H]3[C@@H]1CC[C@@H]2O` (stereo partly drawn) [Example 23, 10-(3,17β-dihydroxyestra-1,3,5(10)-trien-11β-yl)-2-(3,3,4,4,5,5,6,6,6-nonafluorohexyl)decanoic Acid]: the inhibition in vivo at 10 mg/kg turned out to be 98%.

Regarding `O=C(O)C(CCCCCCCCCc1c(-c2ccc(O)cc2)ccc2cc(O)ccc12)CCC(F)(F)C(F)(F)C(F)(F)C(F)(F)F` (centres unmarked) [Example 28, 11-[6-hydroxy-2-(4-hydroxyphenyl)naphth-1-yl]-2-(3,3,4,4,5,5,6,6,6-nonafluorohexyl)undecanoic Acid], the inhibition in vivo at 10 mg/kg worked out at 68%.

For `C[C@]12C[C@H](CCCCCCCCC(CCCCCC(F)(F)C(F)(F)F)C(=O)O)[C@@H]3c4ccc(O)cc4CC[C@H]3[C@@H]1CC[C@@H]2O` (stereo partly drawn) [Example 12, 10-[3,17β-dihydroxyestra-1,3,5(10)-trien-11β-yl]-2-(6,6,7,7,7-pentafluoroheptyl)decanoic Acid], the inhibition in vivo at 10 mg/kg was found to be 97%.

Turning to `C[C@]1(c2ccc(O)cc2)CCc2cc(O)ccc2[C@H]1CCCCCCCCC[S+]([O-])CCCC(F)(F)C(F)(F)F` (some centres unmarked) [ZM189154, reference compound], the “Inhibition (%)” value stood at 42%.

For `C[C@]12CC[C@@H]3c4ccc(O)cc4C[C@@H](CCCCCCCCCC(CCCC(F)(F)C(F)(F)C(F)(F)C(F)(F)F)C(=O)O)[C@H]3[C@@H]1CC[C@@H]2O` (stereo partly drawn) [Example 18, 11-[3,17β-dihydroxyestra-1,3,5(10)-trien-7α-yl]-2-(4,4,5,5,6,6,7,7,7-nonafluoroheptyl)undecanoic Acid], the inhibition in vivo at 10 mg/kg came out at 85%.

Consider `C[C@]12C[C@H](CCCCCCCCCC(CCCC(F)(F)C(F)(F)F)C(=O)O)[C@@H]3c4ccc(O)cc4CC[C@H]3[C@@H]1CC[C@@H]2O` (stereo partly drawn) [Example 24, 11-(3,17β-dihydroxyestra-1,3,5(10)-trien-11β-yl)-2-(4,4,5,5,5-pentafluoropentyl)undecanoic Acid], for which the inhibition in vivo at 10 mg/kg turned out to be 98%.

For the molecule `O=C(O)C(CCCCCCCCCCc1c(-c2ccc(O)cc2C(F)(F)F)ccc2cc(O)ccc12)CCCC(F)(F)C(F)(F)F` (centres unmarked) [Example 32, 12-[6-hydroxy-2-(4-hydroxy-2-trifluoromethylphenyl)naphth-1-yl]-2-(4,4,5,5,5-pentafluoropentyl)-dodecanoic Acid], the inhibition in vivo at 10 mg/kg was found to be 73%.

On to `C[C@]12CC[C@@H]3c4ccc(O)cc4C[C@@H](CCCCCCCCC(CCC(F)(F)C(F)(F)C(F)(F)C(F)(F)F)C(=O)O)[C@H]3[C@@H]1CC[C@@H]2O` (stereo partly drawn) [Example 16, 10-[3,17β-dihydroxyestra-1,3,5(10)-trien-7α-yl]-2-(3,3,4,4,5,5,6,6,6-nonafluorohexyl)decanoic Acid], for which the inhibition in vivo at 10 mg/kg worked out at 98%.

Consider `C[C@]1(c2ccc(O)cc2)CCc2cc(O)ccc2C1CCCCCCCCC(CCCC(F)(F)C(F)(F)F)C(=O)O` (mixture of isomers) [Example 5, 10-[(1RS, 2RS)-6-hydroxy-2-(4-hydroxyphenyl)-2-methyl-1,2,3,4-tetrahydro-1-naphthyl]-2-(4,4,5,5,5-pentafluoropentyl)decanoic Acid], for which the inhibition in vivo at 10 mg/kg was determined as 67%.

As to `O=C(O)C(CCCCCCCCCCc1c(-c2ccc(O)cc2)ccc2cc(O)ccc12)CCCC(F)(F)C(F)(F)F` (centres unmarked) [Example 27, 12-[6-hydroxy-2-(4-hydroxyphenyl)naphth-1-yl]-2-(4,4,5,5,5-pentafluoropentyl)dodecanoic Acid], the inhibition in vivo at 10 mg/kg stood at 64%.

For `C[C@]12CC[C@@H]3c4ccc(O)cc4C[C@@H](CCCCCCCCC(CCCCCC(F)(F)C(F)(F)F)C(=O)O)[C@H]3[C@@H]1CC[C@@H]2O` (stereo partly drawn) [Example 17, 10-[3,17β-dihydroxyestra-1,3,5(10)-trien-7α-yl]-2-(6,6,7,7,7-pentafluoroheptyl)decanoic Acid], the inhibition in vivo at 10 mg/kg turned out to be 94%.

On to `C[C@]12CC[C@@H]3c4ccc(O)cc4C[C@@H](CCCCCCCCCC(CCC(F)(F)C(F)(F)C(F)(F)C(F)(F)F)C(=O)O)[C@H]3[C@@H]1CC[C@@H]2O` (stereo partly drawn) [Example 19, 11-[3,17β-dihydroxyestra-1,3,5(10)-trien-7α-yl]-2-(3,3,4,4,5,5,6,6,6-nonafluorohexyl)undecanoic Acid], for which the inhibition in vivo at 10 mg/kg came to 92%.

Consider `C[C@]12C[C@H](CCCCCCCCC(CCCCCC(F)(F)C(F)(F)F)C(=O)O)[C@@H]3c4ccc(O)cc4CC[C@H]3[C@@H]1CC[C@@H]2O` (stereo partly drawn) [Example 26, 10-(3,17β-dihydroxyestra-1,3,5(10)-trien-11β-yl)-2-(6,6,7,7,7-pentafluoroheptyl)decanoic Acid], for which, where the note is “10 mg/kg”, the “Inhibition (%)” value is 96%.

Regarding `O=C(O)C(CCCCCCCCCCc1c(-c2ccc(O)c(F)c2)ccc2cc(O)ccc12)CCCC(F)(F)C(F)(F)F` (centres unmarked) [Example 33, 12-[2-(3-fluoro-4-hydroxyphenyl)-6-hydroxynaphth-1-yl]-2-(4,4,5,5,5-pentafluoropentyl)dodecanoic Acid], the inhibition in vivo at 10 mg/kg worked out at 64%.

Take `C[C@]12C[C@H](CCCCCCCCCC(CCC(F)(F)C(F)(F)C(F)(F)C(F)(F)F)C(=O)O)[C@@H]3c4ccc(O)cc4CC[C@H]3[C@@H]1CC[C@@H]2O` (stereo partly drawn) [Example 20, 11-(3,17β-dihydroxyestra-1,3,5(10)-trien-11β-yl)-2-(3,3,4,4,5,5,6,6,6-nonafluorohexyl)undecanoic Acid]: the inhibition in vivo at 10 mg/kg was 94%.

The record behind these values is patent publication US6737417B2, “Compounds with hydroxycarbonyl-halogenoalkyl side chain” (Chugai Seiyaku Kabushiki Kaisha, priority 1999, dated 2004).
